According to ChEMBL document CHEMBL5257097, “An Isomer of Galidesivir That Potently Inhibits Influenza Viruses and Members of the Bunyavirales Order” (ACS Med Chem Lett, 2023):

Columns and labels:
[1] = (§1) Selectivity index, ratio of CC50 for cytotoxicity against African green monkey Vero cells infected with Tacaribe virus assessed as reduction in cell viability by visual analysis to EC50 for antiviral activity against Tacaribe virus infected in African green monkey Vero cells assessed as reduction in viral replication by visual analysis; type: toxicity, cell-based; conditions: read-out: Ratio CC50/EC50
Influenza A virus [2] = assay: Antiviral activity against Influenza A virus H3N2 infected in dog MDCK cells assessed as reduction in virus yield measured after 3 days by visual analysis; type: functional; conditions: 72 h, time 3 day
[3] = as §1, with “Vero E6” for “Vero”, “Oropouche” for “Tacaribe”; type: toxicity, cell-based, Vero C1008; conditions: read-out: Ratio CC50/EC50
[4] = as §1, with “dog MDCK” for “African green monkey Vero”, “Influenza B” for “Tacaribe”, “EC90” for “EC50”, “yield” for “replication”; type: toxicity, cell-based
[5] = Cytotoxicity against African green monkey Vero E6 cells infected with Lymphocytic choriomeningitis virus assessed as reduction in cell viability; type: toxicity, cell-based, Vero C1008; conditions: chlorocebus sabaeus
[6] = Cytotoxicity against African green monkey Vero E6 cells infected with JUNV assessed as reduction in cell viability by neutral red dye based analysis; type: toxicity, Vero C1008; conditions: chlorocebus sabaeus
[7] = Cytotoxicity against African green monkey Vero 76 cells infected with La Crosse virus assessed as reduction in cell viability by neutral red dye based analysis; type: toxicity; conditions: chlorocebus sabaeus
[8] = Cytotoxicity against dog MDCK cells infected with Influenza A virus H1N1 assessed as reduction in cell viability by neutral red dye based analysis; type: toxicity, Canis lupus familiaris
Rift Valley fever virus = assay: Antiviral activity against Rift Valley fever virus infected in African green monkey Vero 76 cells assessed as reduction in viral yield measured for 3 days; type: functional; conditions: Vero 76, 72 h, time 3 day
[9] = Toxicity in BALB/c mouse infected with influenza A/Ca/04/09 (H1N1) assessed as mortality at 100 mg/kg, ip measured every day for 6 days; type: organism-based; conditions: in vivo, time 6 day, read-out: Activity
[10] = as §1, with “Pichinde” for “Tacaribe”; type: toxicity, cell-based; conditions: read-out: Ratio CC50/EC50
[11] = Cytotoxicity against African green monkey Vero cells infected with Pichinde virus assessed as reduction in cell viability by neutral red dye based analysis; type: toxicity; conditions: chlorocebus sabaeus
Influenza A virus [12] = assay: Antiviral activity against Influenza A virus H7N9 infected in dog MDCK cells assessed as inhibition of viral replication measured after 15 to 30 mins by neutral red dye based analysis; type: functional, organism-based
[13] = Cytotoxicity against African green monkey Vero E6 cells infected with Maporal virus assessed as reduction in cell viability; type: toxicity, cell-based, Vero C1008; conditions: chlorocebus sabaeus
[14] = as §1, with “Pichinde” for “Tacaribe”, “neutral red dye based” for “visual”; type: toxicity; conditions: read-out: Ratio CC50/EC50
[15] = as §1, with “JUNV” for “Tacaribe virus”; type: toxicity, cell-based; conditions: read-out: Ratio CC50/EC50
[16] = Cytotoxicity against dog MDCK cells infected with Influenza B virus assessed as reduction in cell viability by neutral red dye based analysis; type: toxicity, Canis lupus familiaris
[17] = (§2) Selectivity index, ratio of CC50 for cytotoxicity against African green monkey Vero E6 cells infected with Maporal virus assessed as reduction in cell viability to EC90 for antiviral activity against Maporal virus infected in African green monkey Vero E6 cells assessed as reduction in viral yield; type: toxicity, cell-based, Vero C1008
Influenza A virus [18] = assay: Antiviral activity against Influenza A virus H1N1 infected in dog MDCK cells assessed as reduction in virus yield measured after 3 days by visual analysis; type: functional; conditions: 72 h, time 3 day
Tacaribe virus = assay: Antiviral activity against Tacaribe virus infected in African green monkey Vero cells assessed as inhibition of viral replication by visual analysis; type: functional, organism-based; conditions: Mammarenavirus tacaribeense
[19] = as §2, with “Heartland” for “Maporal”; type: toxicity, cell-based, Vero C1008
Influenza B virus [20] = assay: Antiviral activity against Influenza B virus infected in dog MDCK cells assessed as inhibition of viral replication measured after 15 to 30 mins by visual analysis; type: functional, organism-based
Influenza A virus [21] = assay: Antiviral activity against Influenza A virus H1N1 infected in dog MDCK cells assessed as inhibition of viral replication measured after 15 to 30 mins by visual analysis; type: functional, organism-based
[22] = Cytotoxicity against African green monkey Vero E6 cells infected with Rift Valley fever virus assessed as reduction in cell viability; type: toxicity, cell-based, Vero C1008; conditions: chlorocebus sabaeus
[23] = Toxicity in BALB/c mouse infected with influenza A/Ca/04/09 (H1N1) assessed as animal survival at 10 to 300 mg/kg, ip measured every day for 6 days; type: organism-based; conditions: in vivo, 144 h, dose 10-300 mg/kg, time 6 day
[24] = Toxicity in BALB/c mouse infected with A/Ca/04/09 (H1N1) assessed as animal mean day of death at 10 mg/kg, ip administered twice a day for 5 days (reference value: 9.3 +/-1.1 day ); type: organism-based; conditions: in vivo, 120 h, time 5 day
[25] = as §1, with “JUNV” for “Tacaribe virus”, “neutral red dye based” for “visual”; type: toxicity; conditions: read-out: Ratio CC50/EC50
[26] = test system: Severe fever with thrombocytopenia syndrome virus; assay: Antiviral activity against Severe fever with thrombocytopenia syndrome virus infected in African green monkey Vero E6 cells assessed as reduction in viral yield measured for 3 days; type: functional; conditions: Vero C1008, 72 h, time 3 day
[27] = Toxicity in BALB/c mouse infected with A/Ca/04/09 (H1N1) assessed as animal survival at 10 to 300 mg/kg, ip administered twice a day for 5 days; type: organism-based; conditions: in vivo, 120 h, dose 10-300 mg/kg, time 5 day
[28] = Selectivity index, ratio of CC50 for cytotoxicity against dog MDCK cells infected with Influenza A virus H7N9 assessed as reduction in cell viability by neutral red dye based analysis to EC50 for antiviral activity against Influenza A virus H7N9 infected in dog MDCK cells assessed as inhibition of viral replication by neutral red dye based analysis; type: toxicity; conditions: read-out: Ratio CC50/EC50
Influenza B virus [29] = assay: Antiviral activity against Influenza B virus infected in dog MDCK cells assessed as reduction in viral cytopathic effect; type: functional, organism-based
dengue virus type 2 = assay: Antiviral activity against DENV-2 infected in African green monkey Vero cells assessed as reduction in virus-induced cytopathic effect measured after 15 to 30 mins by visual analysis; type: functional, organism-based
Measles morbillivirus = assay: Antiviral activity against Measles virus infected in African green monkey Vero cells assessed as reduction in viral cytopathic effect; type: functional, organism-based
[30] = test system: Middle East respiratory syndrome-related coronavirus; assay: Antiviral activity against MERS-CoV infected in vervet monkey MA-104 cells assessed as reduction in virus-induced cytopathic effect measured after 15 to 30 mins by visual analysis; type: functional, organism-based; conditions: MA104
Marburgvirus = assay: Antiviral activity against Marburg virus infected in human HeLa cells assessed as reduction in viral cytopathic effect; type: functional, organism-based; conditions: Orthomarburgvirus
[31] = Cytotoxicity against African green monkey Vero cells infected with DENV-2 assessed as reduction in cell viability by neutral red dye based assay; type: toxicity; conditions: chlorocebus sabaeus
Influenza A virus [32] = assay: Antiviral activity against Influenza A virus infected in dog MDCK cells assessed as reduction in viral cytopathic effect; type: functional, organism-based
Sudan ebolavirus = assay: Antiviral activity against SUDV infected in human HeLa cells assessed as reduction in viral cytopathic effect; type: functional, organism-based
[33] = test system: Middle East respiratory syndrome-related coronavirus; assay: Antiviral activity against MERS-CoV infected in vervet monkey MA-104 cells assessed as reduction in virus-induced cytopathic effect measured after 15 to 30 mins by neutral red dye based assay; type: functional, organism-based; conditions: MA104

`Nc1ncnn2c([C@@H]3N[C@H](CO)[C@@H](O)[C@H]3O)ccc12` gave a selectivity ratio [1] of 32, an EC90 (Influenza A virus [2]) of 250 nM and a selectivity ratio [3] of 62. For the same molecule, the selectivity ratio [4] was 50, the CC50 [5] was 12 µM and the CC50 [6] was 9.6 µM. For the same molecule, the CC50 [7] was 24 µM, the CC50 [8] was 14 µM and the EC90 (Rift Valley fever virus) was 97 nM. It also gave a mortality at 144 h [9] of 72%, a selectivity ratio [10] of 42 and a CC50 [11] of 8.4 µM. For the same molecule, the EC50 (Influenza A virus [12]) was 390 nM, the CC50 [13] was 13 µM and the selectivity ratio [14] was 28. It also gave a selectivity ratio [15] of 22, a CC50 [16] of 9.8 µM and a selectivity ratio [17] of 15. The EC90 (Influenza A virus [18]) was 100 nM, the EC50 (Tacaribe virus) was 370 nM and the selectivity ratio [19] was 97. It also gave an EC50 (Influenza B virus [20]) of 320 nM, an EC50 (Influenza A virus [21]) of 320 nM and a CC50 [22] of 8.6 µM. For the same molecule, the Activity [23] was “Non-Toxic”, the Time [24] was 12 days and the selectivity ratio [25] was 34. For the same molecule, the EC90 [26] was 220 nM, the Activity [27] was “Non-Toxic” and the selectivity ratio [28] was 77.

In the case of `Nc1ncnc2c([C@@H]3N[C@H](CO)[C@@H](O)[C@H]3O)c[nH]c12` [GALIDESIVIR], the EC50 (Influenza B virus [29]) is reported as 1000 nM, the EC50 (dengue virus type 2) is reported as 4.2 µM and the EC50 (Measles morbillivirus) is reported as 1800 nM. For the same molecule, the EC50 [30] was 32 µM, the EC50 (Marburgvirus) was 3000 nM and the CC50 [31] was > 100 µM. The EC50 (Influenza A virus [32]) was 1000 nM, the EC50 (Sudan ebolavirus) was 3000 nM and the EC50 [33] was 36 µM.
